Data reported in paper PMC6753678, “Fueling Open Innovation for Malaria Transmission-Blocking Drugs: Hundreds of Molecules Targeting Early Parasite Mosquito Stages” (Frontiers in Microbiology, 2019).
Read-outs that look alike come from different tables or passages of the source.

Experiments:
[1] = system: 3D7-strain P. falciparum asexual parasites; assay: P. falciparum asexual growth inhibition assay (Pf GIA); assay type: cell-based, Plasmodium falciparum; conditions: dose response confirmation; read-out: Pf asexual growth inhibition assays IC50
Procedure: The asexual activity of active compounds was tested in dose response with parasite lactate dehydrogenase (LDH) activity used as a readout of parasite viability as described in [Gamo et al. (2010)]. Briefly, 3D7-strain P. falciparum asexual parasites were diluted to 0.25% parasitemia, 2% hematocrit in culture medium composed of RPMI medium with 25 mM HEPES, 2% D-sucrose, 0.3% L-glutamine, 150 μM hypoxanthine plus 5% albumax. 25 μl of parasite inoculum was then dispensed into each well of a 384 well plate containing test compounds and positive (50 μM chloroquine) and negative (DMSO) controls. Plates were incubated for 72 h at 37°C in a 5% CO2, 5%O2, 90% N2 environment before being frozen at −70°C. Plates were then thawed and 70 μl of reaction mix (143 mM sodium L-lactate, 143 mM 3-acetyl pyridine adenine dinucleotide, […] Nitro Blue tetrazolium chloride, […] diaphorase (2.83 U/ml), 0.7% Tween 20, 100 mM Tris–HCl pH 8.0) was added to each well using a Multidrop Combi automated dispenser. Plates were shaken to mix and then absorbance at 650 nm was measured after 10 min incubation at room temperature. Percent inhibition of asexual growth was then calculated with respect to positive and negative controls. Data presented is the mean of three independent biological replicates.

[2] = system: HepG2 cells; assay: HepG2 cytotoxicity assay; conditions: for IC50: read-out: HepG2 cytotoxicity assay IC50, dose response confirmation; for Unified cytotox: unified HepG2 value across the three screens; for Pb ODA (this manuscript) HepG2 cytoxicity: HepG2 cytotoxicity listed with the Pb ODA data set (this manuscript)
Procedure: Briefly, HepG2 cells were seeded onto compound-treated 384 well plates at a density of 2,500 cells per well in Minimal Essential Medium (MEM) plus 10% fetal bovine serum and 1% non-essential amino acids solution (NEAA). Cells were incubated with test compounds or 50 μM doxorubicin (positive) and DSMO (negative) controls at 37°C for 48 h in a humidified 5% CO2 atmosphere. […] Cell viability was then measured in a fluorescent plate reader and percent inhibition calculated with respect to positive and negative controls.

[3] = system: P. berghei ookinete development; conditions: for % inhibition, Replicate A / % inhibition, Replicate B: primary screen at 1 μM
[4] = read-out: Pb ODA IC50, this manuscript
[5] = read-out: Pb Ookinete development assay IC50, dose response confirmation
[6] = read-out: Pb ODA (this manuscript) IC50, P. berghei ookinete development assay, this manuscript

Row | Compound | IC50 [1] | IC50 [2] | Unified cytotox [2] | Is compound selective in assay? Pb ODA active? ([3]; 1: YES, 0: NO) | % inhibition, Replicate A [3] | % inhibition, Replicate B [3] | IC50 [3, 4] | IC50 [3, 5] | Pb ODA (this manuscript) HepG2 cytoxicity [2] | Is compound selective in assay? Pb ODA active? [3] | IC50 [3, 6]
1 | COc1ccc(C=NNc2nc(O)cc(-c3ccccc3)n2)cc1OC [TCMDC-124217] | 0.63 µM | 58.2 µM | 58.21 µM | 1 (1: YES) | 58.99% | 66.09% | 0.5 µM | 0.497 µM | – | – | –
2 | COc1cc(OC)nc(C(Sc2ccc(NC(=O)c3cccs3)cc2)c2ccccc2)n1 (stereo not drawn) [TCMDC-124257] | 0.184 µM | 100 µM | 100.00 µM | 1 (1: YES) | 29.98% | 55.99% | 0.97 µM | 0.973 µM | – | – | –
3 | COc1ccc2nc3cc(Cl)ccc3c(NCCO)c2c1.Cl [TCMDC-124272] | 0.404 µM | 15.7 µM | – | – | 66.85% | 79.62% | – | 0.843 µM | 15.67 µM | 1 (key: 1: YES; 0: NO) | 0.84 µM
4 | Cc1ccc2[nH]c(C)c(Br)c(=O)c2c1 [TCMDC-124347] | 3.82 µM | 100 µM | 100.00 µM | 1 (1: YES) | 68.86% | 49.90% | 2.45 µM | 2.45 µM | – | – | –
5 | CC(=O)Nc1ccc(Nc2c3ccccc3nc3ccccc23)cc1 [TCMDC-124356] | 1.09 µM | 14.1 µM | 14.13 µM | 1 (1: YES) | 62.81% | 63.52% | 0.6 µM | 0.598 µM | – | – | –
6 | CCn1c(C)cc(C=C2SC(=Nc3ccccc3)NC2=O)c1C [TCMDC-124456] | 1.7 µM | 97.3 µM | 97.27 µM | 1 (1: YES) | 41.94% | 67.52% | 1.01 µM | 1 µM | – | – | –
7 | COc1ccc(C=C2SC(=N)N(c3ccccc3OC)C2=O)cc1 [TCMDC-124486] | 0.343 µM | 24.6 µM | 24.55 µM | 1 (1: YES) | 113.35% | 91.87% | 0.68 µM | 0.682 µM | – | – | –
8 | Cc1cc2nc(/N=C(\N)NC(=O)NC3CCCCC3)nc(C)c2cc1C [TCMDC-124528] | 0.396 µM | 8.51 µM | – | – | 53.37% | 63.38% | – | 0.846 µM | 8.51 µM | 1 (key: 1: YES; 0: NO) | 0.85 µM
9 | CCc1cc2c(Sc3nc4ccccc4[nH]3)ncnc2s1 [TCMDC-124553] | 1.76 µM | 100 µM | 100.00 µM | 1 (1: YES) | 56.26% | 84.90% | 1 µM | 0.998 µM | – | – | –
10 | Cc1ccc2nc(/N=C(\N)NC(=O)NC3CCCCC3)nc(C)c2c1 [TCMDC-124557] | 4.68 µM | 57.5 µM | – | – | 85.28% | 75.31% | – | 1.75 µM | 57.54 µM | 1 (key: 1: YES; 0: NO) | 1.75 µM
11 | COc1cccc(C=Cc2nc(=O)c3ccccc3o2)c1OC [TCMDC-124577] | 0.146 µM | 100 µM | – | – | 107.06% | 83.20% | – | 0.049 µM | 100.00 µM | 1 (key: 1: YES; 0: NO) | 0.05 µM
12 | c1ccc(CCNc2ncnc3c2[nH]c2ccccc23)cc1 [TCMDC-124578] | 0.27 µM | 10.6 µM | 10.59 µM | 1 (1: YES) | 104.22% | 87.03% | 0.37 µM | 0.368 µM | – | – | –
